# Data from ChEMBL document CHEMBL1145498, “A systematic interaction map of validated kinase inhibitors with Ser/Thr kinases” (Proc Natl Acad Sci U S A, 2007).
# Molecular target: T1, Calcium/calmodulin-dependent protein kinase type IV (Homo sapiens) (UniProt Q16566)
# T1 sequence (whole entry): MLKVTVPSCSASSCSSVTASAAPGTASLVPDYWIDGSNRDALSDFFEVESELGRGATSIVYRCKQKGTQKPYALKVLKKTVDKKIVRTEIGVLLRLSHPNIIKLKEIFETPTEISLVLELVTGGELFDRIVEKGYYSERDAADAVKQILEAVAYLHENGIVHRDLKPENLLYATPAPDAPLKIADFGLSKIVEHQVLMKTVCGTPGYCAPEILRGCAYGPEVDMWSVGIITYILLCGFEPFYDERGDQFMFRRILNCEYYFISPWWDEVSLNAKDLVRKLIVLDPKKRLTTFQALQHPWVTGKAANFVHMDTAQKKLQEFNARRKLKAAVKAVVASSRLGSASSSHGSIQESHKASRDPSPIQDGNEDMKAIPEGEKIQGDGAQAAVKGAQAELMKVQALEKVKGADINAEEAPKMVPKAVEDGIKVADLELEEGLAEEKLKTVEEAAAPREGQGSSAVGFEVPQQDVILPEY
row,ΔTm,Compound
1,0 °C,O=S(=O)(c1cccc2c(Cl)cccc12)N1CCCNCC1
2,2.6 °C,CN(C)S(=O)(=O)c1ccc2c(c1)/C(=C/c1cc3c([nH]1)CCCC3)C(=O)N2
3,-0.1 °C,CC(C)(C)n1nc(-c2cccc3ccccc23)c2c(N)ncnc21
4,0.2 °C,O=c1c2ccccc2[nH]c(=S)n1CCN1CCC(=C(c2ccc(F)cc2)c2ccc(F)cc2)CC1 [DIACYLGLYCEROL KINASE INHIBITOR II]

row,Compound,ΔTm
1,N=C(N)NCCNS(=O)(=O)c1cccc2cnccc12,-0.3 °C

# Molecular target: Cyclin-dependent kinase 2 (Homo sapiens, UniProt P24941)
row,ΔTm,Compound
1,0.8 °C,O=S(=O)(c1cccc2c(Cl)cccc12)N1CCCNCC1
2,2.3 °C,CN(C)S(=O)(=O)c1ccc2c(c1)/C(=C/c1cc3c([nH]1)CCCC3)C(=O)N2
3,0.1 °C,CC(C)(C)n1nc(-c2cccc3ccccc23)c2c(N)ncnc21
4,0.9 °C,O=c1c2ccccc2[nH]c(=S)n1CCN1CCC(=C(c2ccc(F)cc2)c2ccc(F)cc2)CC1 [DIACYLGLYCEROL KINASE INHIBITOR II]

row,Compound,ΔTm
1,N=C(N)NCCNS(=O)(=O)c1cccc2cnccc12,0.3 °C

# Molecular target: Casein kinase I isoform gamma-2 (Homo sapiens) (UniProt P78368)
# Sequence (P78368 whole entry, looked up, canonical isoform): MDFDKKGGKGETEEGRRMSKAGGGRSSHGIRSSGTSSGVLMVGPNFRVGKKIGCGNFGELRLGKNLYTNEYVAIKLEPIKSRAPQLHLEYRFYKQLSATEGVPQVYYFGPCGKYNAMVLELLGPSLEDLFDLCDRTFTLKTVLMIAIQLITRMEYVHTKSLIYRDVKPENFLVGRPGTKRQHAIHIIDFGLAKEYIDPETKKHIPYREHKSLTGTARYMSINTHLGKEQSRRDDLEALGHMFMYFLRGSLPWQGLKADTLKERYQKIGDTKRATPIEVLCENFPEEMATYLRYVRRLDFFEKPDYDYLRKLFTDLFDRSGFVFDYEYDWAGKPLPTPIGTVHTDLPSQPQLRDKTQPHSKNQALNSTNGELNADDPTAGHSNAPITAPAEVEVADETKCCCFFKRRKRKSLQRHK
row,ΔTm,Compound
1,0.3 °C,O=S(=O)(c1cccc2c(Cl)cccc12)N1CCCNCC1
2,0.1 °C,CN(C)S(=O)(=O)c1ccc2c(c1)/C(=C/c1cc3c([nH]1)CCCC3)C(=O)N2
3,0.5 °C,CC(C)(C)n1nc(-c2cccc3ccccc23)c2c(N)ncnc21
4,0.5 °C,O=c1c2ccccc2[nH]c(=S)n1CCN1CCC(=C(c2ccc(F)cc2)c2ccc(F)cc2)CC1 [DIACYLGLYCEROL KINASE INHIBITOR II]

row,Compound,ΔTm
1,N=C(N)NCCNS(=O)(=O)c1cccc2cnccc12,0.4 °C

# Molecular target: Serine/threonine-protein kinase PAK 4 (Homo sapiens) (UniProt O96013)
# Sequence (O96013 whole entry, looked up): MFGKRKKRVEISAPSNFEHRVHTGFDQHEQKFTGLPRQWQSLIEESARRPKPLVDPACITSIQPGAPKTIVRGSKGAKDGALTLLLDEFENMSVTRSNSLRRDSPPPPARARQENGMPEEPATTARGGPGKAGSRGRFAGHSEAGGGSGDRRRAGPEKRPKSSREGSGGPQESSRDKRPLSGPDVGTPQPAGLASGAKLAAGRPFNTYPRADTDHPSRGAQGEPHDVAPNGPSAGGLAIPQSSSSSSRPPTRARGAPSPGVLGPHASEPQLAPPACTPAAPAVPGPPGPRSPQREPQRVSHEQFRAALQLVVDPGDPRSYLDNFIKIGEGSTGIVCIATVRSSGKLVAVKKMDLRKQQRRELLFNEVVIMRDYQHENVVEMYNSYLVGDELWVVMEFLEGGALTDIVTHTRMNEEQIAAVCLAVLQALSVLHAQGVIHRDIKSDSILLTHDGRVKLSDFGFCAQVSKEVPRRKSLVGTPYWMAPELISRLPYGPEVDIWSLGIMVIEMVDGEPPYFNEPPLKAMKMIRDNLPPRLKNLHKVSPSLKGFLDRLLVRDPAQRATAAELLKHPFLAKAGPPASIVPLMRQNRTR
row,ΔTm,Compound
1,0.8 °C,O=S(=O)(c1cccc2c(Cl)cccc12)N1CCCNCC1
2,1.3 °C,CN(C)S(=O)(=O)c1ccc2c(c1)/C(=C/c1cc3c([nH]1)CCCC3)C(=O)N2
3,1.2 °C,CC(C)(C)n1nc(-c2cccc3ccccc23)c2c(N)ncnc21
4,1.3 °C,O=c1c2ccccc2[nH]c(=S)n1CCN1CCC(=C(c2ccc(F)cc2)c2ccc(F)cc2)CC1 [DIACYLGLYCEROL KINASE INHIBITOR II]

row,Compound,ΔTm
1,N=C(N)NCCNS(=O)(=O)c1cccc2cnccc12,-0.1 °C

# Molecular target: Serine/threonine-protein kinase pim-3 (Homo sapiens) (UniProt Q86V86)
row,ΔTm,Compound
1,3.5 °C,O=S(=O)(c1cccc2c(Cl)cccc12)N1CCCNCC1
2,1.7 °C,CN(C)S(=O)(=O)c1ccc2c(c1)/C(=C/c1cc3c([nH]1)CCCC3)C(=O)N2
3,0.7 °C,CC(C)(C)n1nc(-c2cccc3ccccc23)c2c(N)ncnc21
4,0.9 °C,O=c1c2ccccc2[nH]c(=S)n1CCN1CCC(=C(c2ccc(F)cc2)c2ccc(F)cc2)CC1 [DIACYLGLYCEROL KINASE INHIBITOR II]

row,Compound,ΔTm
1,N=C(N)NCCNS(=O)(=O)c1cccc2cnccc12,0.8 °C

# Molecular target: Serine/threonine-protein kinase RIO2 (Homo sapiens) (UniProt Q9BVS4)
# Sequence (Q9BVS4 whole entry, looked up): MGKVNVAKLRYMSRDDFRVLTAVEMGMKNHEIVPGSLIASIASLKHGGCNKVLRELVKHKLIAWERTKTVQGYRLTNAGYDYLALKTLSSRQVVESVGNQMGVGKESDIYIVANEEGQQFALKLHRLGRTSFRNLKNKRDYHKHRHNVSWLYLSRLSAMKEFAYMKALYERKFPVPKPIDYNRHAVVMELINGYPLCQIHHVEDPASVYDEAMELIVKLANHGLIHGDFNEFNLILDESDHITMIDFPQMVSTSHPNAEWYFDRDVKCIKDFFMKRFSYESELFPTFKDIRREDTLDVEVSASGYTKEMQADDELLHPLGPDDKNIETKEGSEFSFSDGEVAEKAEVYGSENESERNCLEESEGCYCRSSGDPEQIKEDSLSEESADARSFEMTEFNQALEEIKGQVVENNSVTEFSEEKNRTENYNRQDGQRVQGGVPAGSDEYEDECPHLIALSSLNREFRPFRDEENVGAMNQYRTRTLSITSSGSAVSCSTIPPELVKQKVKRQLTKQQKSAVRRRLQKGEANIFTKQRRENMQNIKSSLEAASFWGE
row,ΔTm,Compound
1,0.3 °C,O=S(=O)(c1cccc2c(Cl)cccc12)N1CCCNCC1
2,-6.4 °C,CN(C)S(=O)(=O)c1ccc2c(c1)/C(=C/c1cc3c([nH]1)CCCC3)C(=O)N2
3,0.4 °C,CC(C)(C)n1nc(-c2cccc3ccccc23)c2c(N)ncnc21
4,3.5 °C,O=c1c2ccccc2[nH]c(=S)n1CCN1CCC(=C(c2ccc(F)cc2)c2ccc(F)cc2)CC1 [DIACYLGLYCEROL KINASE INHIBITOR II]

row,Compound,ΔTm
1,N=C(N)NCCNS(=O)(=O)c1cccc2cnccc12,1.5 °C

# Molecular target: Ribosomal protein S6 kinase alpha-3 (Homo sapiens) (UniProt P51812)
# Sequence (P51812 whole entry): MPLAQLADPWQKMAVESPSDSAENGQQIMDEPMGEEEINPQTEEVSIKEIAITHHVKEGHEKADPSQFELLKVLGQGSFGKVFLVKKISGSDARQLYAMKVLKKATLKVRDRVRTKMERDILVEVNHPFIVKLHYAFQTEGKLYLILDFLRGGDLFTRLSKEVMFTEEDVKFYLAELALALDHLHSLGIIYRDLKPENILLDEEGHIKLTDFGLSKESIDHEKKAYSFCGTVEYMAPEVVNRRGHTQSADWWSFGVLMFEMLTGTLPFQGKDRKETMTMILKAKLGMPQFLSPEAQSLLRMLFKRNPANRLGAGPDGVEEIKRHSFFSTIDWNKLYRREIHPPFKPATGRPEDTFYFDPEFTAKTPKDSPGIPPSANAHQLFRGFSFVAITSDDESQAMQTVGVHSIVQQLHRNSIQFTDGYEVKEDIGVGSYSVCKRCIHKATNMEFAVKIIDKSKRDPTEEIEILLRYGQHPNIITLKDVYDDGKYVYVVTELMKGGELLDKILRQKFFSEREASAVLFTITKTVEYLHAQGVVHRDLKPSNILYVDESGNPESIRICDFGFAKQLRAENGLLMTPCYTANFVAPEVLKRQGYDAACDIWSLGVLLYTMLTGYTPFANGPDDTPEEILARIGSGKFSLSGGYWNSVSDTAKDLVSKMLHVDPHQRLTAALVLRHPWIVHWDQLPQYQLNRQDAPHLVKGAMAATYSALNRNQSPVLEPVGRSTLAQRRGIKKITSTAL
row,ΔTm,Compound
1,0.5 °C,O=S(=O)(c1cccc2c(Cl)cccc12)N1CCCNCC1
2,7.5 °C,CN(C)S(=O)(=O)c1ccc2c(c1)/C(=C/c1cc3c([nH]1)CCCC3)C(=O)N2
3,2.4 °C,CC(C)(C)n1nc(-c2cccc3ccccc23)c2c(N)ncnc21
4,1.2 °C,O=c1c2ccccc2[nH]c(=S)n1CCN1CCC(=C(c2ccc(F)cc2)c2ccc(F)cc2)CC1 [DIACYLGLYCEROL KINASE INHIBITOR II]

row,Compound,ΔTm
1,N=C(N)NCCNS(=O)(=O)c1cccc2cnccc12,0.4 °C

# Molecular target: Serine/threonine-protein kinase 16 (Homo sapiens) (UniProt O75716)
# Sequence (O75716 whole entry): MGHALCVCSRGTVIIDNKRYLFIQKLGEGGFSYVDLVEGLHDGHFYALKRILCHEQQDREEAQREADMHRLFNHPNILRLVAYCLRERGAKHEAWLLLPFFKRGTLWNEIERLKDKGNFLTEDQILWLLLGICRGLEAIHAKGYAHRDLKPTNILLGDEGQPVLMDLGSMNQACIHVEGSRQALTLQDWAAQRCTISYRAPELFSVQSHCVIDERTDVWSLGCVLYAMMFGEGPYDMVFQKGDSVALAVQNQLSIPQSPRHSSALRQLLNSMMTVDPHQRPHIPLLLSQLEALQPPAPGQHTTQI
row,ΔTm,Compound
1,1.1 °C,O=S(=O)(c1cccc2c(Cl)cccc12)N1CCCNCC1
2,0.3 °C,CN(C)S(=O)(=O)c1ccc2c(c1)/C(=C/c1cc3c([nH]1)CCCC3)C(=O)N2
3,0.7 °C,CC(C)(C)n1nc(-c2cccc3ccccc23)c2c(N)ncnc21
4,0.3 °C,O=c1c2ccccc2[nH]c(=S)n1CCN1CCC(=C(c2ccc(F)cc2)c2ccc(F)cc2)CC1 [DIACYLGLYCEROL KINASE INHIBITOR II]

row,Compound,ΔTm
1,N=C(N)NCCNS(=O)(=O)c1cccc2cnccc12,0.3 °C

# Molecular target: T2, Serine/threonine-protein kinase 4 (Homo sapiens) (UniProt Q13043)
# T2 sequence (whole entry): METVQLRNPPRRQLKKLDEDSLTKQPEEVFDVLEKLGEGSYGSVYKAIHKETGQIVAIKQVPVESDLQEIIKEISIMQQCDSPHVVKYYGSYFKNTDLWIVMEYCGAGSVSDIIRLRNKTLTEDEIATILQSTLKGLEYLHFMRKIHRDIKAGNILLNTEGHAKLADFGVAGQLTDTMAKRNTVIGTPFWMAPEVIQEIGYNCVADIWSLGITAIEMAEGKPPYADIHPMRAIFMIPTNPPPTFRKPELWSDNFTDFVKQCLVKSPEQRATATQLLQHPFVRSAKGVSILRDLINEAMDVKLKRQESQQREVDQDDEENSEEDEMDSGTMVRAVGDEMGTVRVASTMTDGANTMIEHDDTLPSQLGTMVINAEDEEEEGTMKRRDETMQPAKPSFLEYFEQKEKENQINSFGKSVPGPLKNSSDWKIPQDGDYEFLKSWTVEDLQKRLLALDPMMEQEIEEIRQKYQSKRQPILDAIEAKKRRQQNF
row,ΔTm,Compound
1,0.9 °C,O=S(=O)(c1cccc2c(Cl)cccc12)N1CCCNCC1
2,8.7 °C,CN(C)S(=O)(=O)c1ccc2c(c1)/C(=C/c1cc3c([nH]1)CCCC3)C(=O)N2
3,3.2 °C,CC(C)(C)n1nc(-c2cccc3ccccc23)c2c(N)ncnc21
4,2 °C,O=c1c2ccccc2[nH]c(=S)n1CCN1CCC(=C(c2ccc(F)cc2)c2ccc(F)cc2)CC1 [DIACYLGLYCEROL KINASE INHIBITOR II]

row,Compound,ΔTm
1,N=C(N)NCCNS(=O)(=O)c1cccc2cnccc12,0.4 °C

# Molecular target: T3, Lymphokine-activated killer T-cell-originated protein kinase (Homo sapiens) (UniProt Q96KB5)
# T3 sequence (whole entry): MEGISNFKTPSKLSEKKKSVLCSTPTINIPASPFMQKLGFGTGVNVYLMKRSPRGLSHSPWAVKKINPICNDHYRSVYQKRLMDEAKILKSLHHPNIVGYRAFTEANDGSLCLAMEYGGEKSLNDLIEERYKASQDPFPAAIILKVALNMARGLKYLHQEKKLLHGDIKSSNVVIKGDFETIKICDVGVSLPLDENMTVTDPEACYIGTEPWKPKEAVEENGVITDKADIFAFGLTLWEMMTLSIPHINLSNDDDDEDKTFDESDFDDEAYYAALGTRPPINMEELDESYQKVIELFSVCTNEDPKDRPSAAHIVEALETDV
row,Compound,ΔTm
1,O=S(=O)(c1cccc2c(Cl)cccc12)N1CCCNCC1,0 °C
2,CN(C)S(=O)(=O)c1ccc2c(c1)/C(=C/c1cc3c([nH]1)CCCC3)C(=O)N2,1 °C
3,CC(C)(C)n1nc(-c2cccc3ccccc23)c2c(N)ncnc21,0.5 °C
4,O=c1c2ccccc2[nH]c(=S)n1CCN1CCC(=C(c2ccc(F)cc2)c2ccc(F)cc2)CC1 [DIACYLGLYCEROL KINASE INHIBITOR II],0.1 °C
5,N=C(N)NCCNS(=O)(=O)c1cccc2cnccc12,0.6 °C

# Molecular target: Serine/threonine-protein kinase VRK2 (Homo sapiens) (UniProt Q86Y07)
# Sequence (Q86Y07 whole entry): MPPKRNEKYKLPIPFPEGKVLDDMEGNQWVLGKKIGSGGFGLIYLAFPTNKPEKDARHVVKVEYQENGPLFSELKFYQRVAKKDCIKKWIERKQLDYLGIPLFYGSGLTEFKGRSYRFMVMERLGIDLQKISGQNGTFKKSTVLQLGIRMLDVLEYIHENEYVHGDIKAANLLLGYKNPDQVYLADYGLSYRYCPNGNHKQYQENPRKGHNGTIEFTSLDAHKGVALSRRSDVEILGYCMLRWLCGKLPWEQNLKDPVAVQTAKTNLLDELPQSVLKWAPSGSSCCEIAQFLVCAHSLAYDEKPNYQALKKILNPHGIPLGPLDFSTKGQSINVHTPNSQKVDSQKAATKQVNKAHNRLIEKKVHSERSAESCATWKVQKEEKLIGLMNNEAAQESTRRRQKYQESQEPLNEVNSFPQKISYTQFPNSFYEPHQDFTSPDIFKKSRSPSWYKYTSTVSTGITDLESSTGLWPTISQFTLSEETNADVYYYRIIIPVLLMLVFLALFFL
row,ΔTm,Compound
1,0 °C,O=S(=O)(c1cccc2c(Cl)cccc12)N1CCCNCC1
2,0.4 °C,CN(C)S(=O)(=O)c1ccc2c(c1)/C(=C/c1cc3c([nH]1)CCCC3)C(=O)N2
3,2.8 °C,CC(C)(C)n1nc(-c2cccc3ccccc23)c2c(N)ncnc21
4,-0.2 °C,O=c1c2ccccc2[nH]c(=S)n1CCN1CCC(=C(c2ccc(F)cc2)c2ccc(F)cc2)CC1 [DIACYLGLYCEROL KINASE INHIBITOR II]

row,Compound,ΔTm
1,N=C(N)NCCNS(=O)(=O)c1cccc2cnccc12,0.1 °C
